The values that follow come from US20240174641A1, “HETEROCYCLIC COMPOUNDS CAPABLE OF […]” (Boehringer Ingelheim International GmbH, priority 2022, published 2024).

One test deals with STING (Canis lupus familiaris, UniProt A0A8I3MH52). The experiment in a line: Dog whole blood (dWB) assay, IFNb secretion by ELISA. Type of test: cell-based. The settings on record: canine Interferon-beta (IFNb) ELISA, 4 h incubation at 37° C. How it is done: For the detection of STING activation in physiological environment dog whole blood (dWB) was stimulated by the cyclic dinucleotide cGAMP or a test compound. Pathway activity was monitored by measuring the IFNb production.
Compounds were delivered as 10 mM DMSO solution, diluted and transferred by using an Echo acoustic dispenser to the 384 well assay plate (Greiner #781182), pre-filled with 10 μl 1×HBSS in each well (10×HBSS (+Ca/+Mg), #14065-049, Gibco). Typically, 8 concentrations were used with the highest concentration at 10 μM in the final assay volume followed by approximately 1:4 dilution steps. DMSO concentration was set to 0.1% in the final assay volume. The 384-well assay plate contained 20 test compounds and DMSO in control and cGAMP standard wells. The dog whole blood was collected as Na-Citrate blood (e.g., 3.8% in Monovettes from Sarstedt) and kept at 4° C. overnight until use in the assay. 80 μl of the whole blood samples were transferred to each well of the 384-well assay plates filled with compound/1×HBSS. Blood plates were kept at room temperature for 60 minutes and continuous shaking with 450 rpm, covered with the lid, but not sealed. A 10×cGAMP assay solution was diluted from a 2 mM stock solution in 1×HBSS immediately before use at room temperature. 10 μl of the 10×cGAMP/HBSS were added to the high control wells, whereas HBSS only was added to all compound and low control wells. After covering assay plates with the lid, blood plates were kept for a 4 h incubation at 37° C. in the incubator, without shaking. For the detection of IFNb in dog plasma the ELISA Kit for Canine Interferon Beta (Biotrend #SEA222Ca) was used. Whole blood assay plates were centrifuged at 1000 g for 10 minutes at 8° C. […] was transferred with a 96 well pipetting robotics from the 384 well whole blood plate to the corresponding 96 well ELISA plate, pre-filled with 60 μl assay diluent in each well. Plates were sealed with microplate seals and kept at 4° C. overnight again. ELISA plates were brought to room temperature, followed by a 1 h incubation at 37° C. in the incubator. Detection Reagent A working solution was prepared by diluting Detection Reagent A 1:100 in Assay Reagent A. Liquid was then removed from the 96 well ELISA plate to add 100 μL Detection Reagent A working solution to each well. ELISA plates were covered with the plate sealer and incubated for 1 hour at 37° C. in the incubator. The 1× Wash buffer was prepared by diluting the 30× Wash Buffer Concentrate in H2O. Detection Reagent B working solution was prepared by diluting Detection Reagent B 1:100 in Assay Reagent B. The ELISA plates were washed three times with 350 μl wash buffer and afterwards inverted and blotted against absorbent paper to remove any liquid. 100 μL of Detection Reagent B working solution was added to each well of the ELISA plates, which are then covered with the plate sealer and incubated for 30 minutes at 37° C. in the incubator. After incubation the ELISA assay plates were washed five times with 350 μl wash buffer and were again inverted and blotted against absorbent paper to remove any remaining liquid. 90 μL of TMB Substrate was added to each well of the ELISA plates, which were then covered with the plate sealer and incubated for 15 minutes at 37° C. in the incubator. The reaction was stopped by adding 50 μL stop solution and absorbance was measured at 450 nm immediately.
For data evaluation and calculation, % control calculation of each well was based on the mean of high (cGAMP stimulated control) and mean of low (unstimulated control) controls by using the following standard 4 parameter logistic regression formula:
[y=(a−d)/(1+(x/c)^b)+d] • a=low value, • d=high value, • x=conc M, • c=EC50 M, • b=slope. Dog Liver Microsome (dLM) Assay

A further test has as its system dog STING (dSTING). The experiment in a line: Dog differential scanning fluorimetry (DSF) assay, thermal shift of dog STING protein. The settings on record: DSF (dDSF); 100 μM compound, 3 μM dog STING protein; Tm with ligand minus Tm of protein alone. It is filed as binding. From the text:
The protein used for the biophysical experiments was a recombinant dog STING protein comprising its cytosolic cGAMP binding ectodomain. A codon optimized DNA sequence (for expression in Escherichia coli) encoding amino acid residues 149 to 375 of dog STING was synthesized by GeneArt (Regensburg, Germany) and inserted into a pET17b E. coli expression vector. The protein construct encodes an N-terminal 8×His-tag followed by tobacco etch virus protease (TEV) cleavage site and the above STING gene sequence. The resulting protein sequence for the used dog STING protein (SEQ ID No. 1) is listed below:
For expression of the above recombinant dog STING, the construct was transformed into E. coli BL21 DE3 strain and grown in shake flasks in LB-medium at 15° C. Expression was induced by addition of isopropyl β-D-1-thiogalactopyranoside to a final concentration of 1 mM and cultures shaken overnight. Cell pellets were centrifuged and stored at −70° C. until further use. Protein was purified by cell thawing in lysis buffer (20 mM TRIS-HCl, pH 8, 500 mM NaCl, 1 mM DTT, 0.5 mg/ml lysozyme, Complete Protease Inhibitor (Roche) and DNase (Roche)), followed by metal affinity purification using Ni-NTA resins and elution buffer consisting of 20 mM TRIS-HCl, pH 8, 500 mM NaCl, 1 mM DTT, 300 mM imidazole. Cleavage of the His-Tag using TEV-protease took place during dialysis in size exclusion buffer (20 mM TRIS-HCl, pH 8, 100 mM NaCl, 1 mM DTT) over night. To further purify the target protein a reverse Nickel affinity column was used and the flow through was applied to a size exclusion chromatography. The peak fraction was collected and concentrated to 5 mg/mL.
Dye fluorescence is quenched in aqueous environment and increases upon association of the dye with the hydrophobic parts of the unfolding protein. […] The inflection point of the curve represents the “melting” temperature of the protein (Tm) which is calculated numerically using the Boltzmann equation.
The thermal stability of the dog STING protein was measured in assay buffer containing 20 mM Tris, 150 mM NaCl at pH7.5. The assay uses 384-Well qPCR Plates (Catalog #781358, BRAND), Microseal® ‘B’ Adhesive Seals for PCR Plates (Catalog #MSB-1001, BIO-RAD) and was run on a CFX384 Real-Time System (Bio-Rad). A DMSO stock solution of SYPRO orange (SIGMA 55692-500UL) was prepared. Compound stock solutions (10 mM in DMSO) were diluted 1:2 in DMSO to an intermediate compound concentration of 5 mM and then further diluted 1:40 in assay buffer resulting in a compound concentration of 125 μM and 2.5% DMSO. Fluorescent dye stock solution (5000×SYPRO Orange) was then mixed with target protein and buffer to a concentration of 15 μM Protein and 25×SYPRO Orange. 2 μl of this protein-dye-mixture was added to 8 μl compound solution. Final volume was 10 μL. 3-6 well positions were used as negative control (protein with 2% DMSO). The plates were prepared for duplicate measurement and centrifuged for 2 min at 1000 g. In the measurement, 160 cycles of 0.5° C. were used (temperature ramp 15 s/cycle, 15° C. to 95° C.).
Final Assay concentrations for compound characterization were 100 μM compound, 3 μM target protein, 5×SYPRO Orange, and 2% DMSO in 10 μl. All dispensing steps were performed using a HamiltonStar pipetting robot (Hamilton).
Dissociation curves were processed in Bio-Rad CFX Manager. Peak type was set to “negative”. Compound codes for screen were assigned in the plate layout.
Two replicates of TM measurements were averaged, and the standard deviation was calculated. In cases of SD>1.5° C. the measurement was repeated.
The melting point (Tm) obtained for STING protein alone was subtracted from T obtained for protein incubated with ligand to generate ΔTm values.

Chain of STING (A0A8I3MH52 1-374): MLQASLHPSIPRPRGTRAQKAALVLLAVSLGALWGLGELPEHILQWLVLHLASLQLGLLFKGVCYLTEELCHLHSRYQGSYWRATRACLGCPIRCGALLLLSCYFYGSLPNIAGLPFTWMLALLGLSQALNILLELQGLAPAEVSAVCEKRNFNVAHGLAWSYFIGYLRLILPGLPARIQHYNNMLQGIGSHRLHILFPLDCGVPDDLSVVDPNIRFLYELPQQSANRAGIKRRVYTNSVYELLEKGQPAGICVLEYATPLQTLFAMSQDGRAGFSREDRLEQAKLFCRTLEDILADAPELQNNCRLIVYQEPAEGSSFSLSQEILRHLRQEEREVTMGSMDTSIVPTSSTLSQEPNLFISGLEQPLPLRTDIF

The compound `CC(=O)N1C[C@@H]2C[C@H]1CN2c1ccc(-n2nc(-c3cccc4nn(C)c(F)c34)c3cccc(C)c32)cn1` [Example 21, 1-[(1S,4S)-5-(5-{3″-fluoro-2″,7-dimethyl-1H,2″H-[3,4″-biindazol]-1-yl}pyridin-2-yl)-2,5-diazabicyclo[2.2.1]heptan-2-yl]ethan-1-one] came in with an EC50 on STING of 1010 nM. The “Delta TM” value with dog STING (dSTING) stood at 24.9 °C.
With `Cc1cccc2c(-c3c(F)ccc4nn(C)cc34)nn(-c3ccc(N4CC[C@H](CC(=O)O)C4)nc3)c12` [Example 25, 2-[(3R)-1-(5-{5″-fluoro-2″,7-dimethyl-1H,2″H-[3,4″-biindazol]-1-yl}pyridin-2-yl)pyrrolidin-3-yl]acetic acid], the EC50 at STING was determined as 283 nM. The “Delta TM” value with dog STING (dSTING) amounted to 37.0 °C.
`Cc1cccc2c(-c3c(F)cc(F)c4nn(C)cc34)nn(-c3ccc(N4CCC(C(=O)O)CC4)nc3)c12` [Example 44, 1-(5-{5″,7″-difluoro-2″,7-dimethyl-1H,2″H-[3,4″-biindazol]-1-yl}pyridin-2-yl)piperidine-4-carboxylic acid] had an EC50 at STING of 388 nM. Besides, the “Delta TM” value with dog STING (dSTING) was 34.5 °C.
For `CC(=O)N1CCN(c2ccc(-n3nc(-c4cccc5nn(C)c(F)c45)c4cc(F)cc(C)c43)cn2)CC1` [Example 59, 1-[4-(5-{3″,5-difluoro-2″,7-dimethyl-1H,2″H-[3,4″-biindazol]-1-yl}pyridin-2-yl)piperazin-1-yl]ethan-1-one], at STING, the EC50 came out at 207 nM. Also, the “Delta TM” value with dog STING (dSTING) stood at 22.0 °C.
On the same counts, the results for `Cc1cccc2c(-c3c(F)cc(F)c4nn(C)cc34)nn(-c3ccc(N4CC5CCC4CC5C(=O)O)nc3)c12` (single isomer, unassigned) [Example 48-3] are 184 nM and 35.4 °C.
On the same counts, the results for `Cc1cccc2c(-c3cccc4nn(C)c(F)c34)nn(-c3ccc(N4CCC(C(=O)O)CC4)nc3)c12` [Example 2, 1-(5-{3″-Fluoro-2″,7-dimethyl-1H,2″H-[3,4″-biindazol]-1-yl}pyridin-2-yl)piperidine-4-carboxylic acid] are 236 nM and 34.5 °C.
`Cc1cccc2c(-c3cccc4nn(C)c(F)c34)nn(-c3ccc(N4CC5CCC4CC5C(=O)O)nc3)c12` (single isomer, unassigned) [Example 20-3, 2-(5-{3'-fluoro-2',7-dimethyl-1H,2'H-[3,4'-biindazol]-1-yl}pyridin-2-yl)-2-azabicyclo[2.2.2]octane-5-carboxylic acid] had an EC50 on STING of 195 nM. In the test with dog STING (dSTING), the “Delta TM” value turned out to be 35.9 °C.
Compound “2-[4-(5-{3″-fluoro-2″,7-dimethyl- 1H,2″H-[3,4″-biindazol]-1-yl}pyridin-2- yl)morpholin-2-yl]acetic acid [Example 18]” gave an EC50 on STING of 1070 nM. The “Delta TM” value with dog STING (dSTING) worked out at 28.8 °C.
The compound `Cc1cccc2c(-c3cccc4nn(C)c(F)c34)nn(-c3ccc(N4CC[C@@H](CC(=O)O)C4)nc3)c12` [Example 16, 2-[(3S)-1-(5-{3″-fluoro-2″,7-dimethyl-1H,2″H-[3,4″-biindazol]-1-yl}pyridin-2-yl)pyrrolidin-3-yl]acetic acid] yielded a 50% effective concentration (EC50) at STING of 267 nM. In addition, the “Delta TM” value with dog STING (dSTING) came out at 34.0 °C.
The matching figures for `Cc1c(F)ccc2c(-c3cccc4nn(C)c(F)c34)nn(-c3ccc(N4C[C@@H]5[C@H](C4)[C@H]5C(=O)O)nc3)c12` [Example 11, (1R,5S,6R)-3-(5-{3″,6-Difluoro-2″,7-dimethyl-1H,2″H-[3,4″-biindazol]-1-yl}pyridin-2-yl)-3-azabicyclo[3.1.0]hexane-6-carboxylic acid]: 458 nM and 34.8 °C.
`Cc1cc(F)cc2c(-c3c(F)ccc4nn(C)cc34)nn(-c3ccc(N4CCC(C(=O)O)CC4)nc3)c12` [Example 62, 1-(5-{5,5″-difluoro-2″,7-dimethyl-1H,2″H-[3,4″-biindazol]-1-yl}pyridin-2-yl)piperidine-4-carboxylic acid]: on STING, the half-maximal effective concentration (EC50) was found to be 295 nM. For the same compound, in the test on dog STING (dSTING), the “Delta TM” value was 38.0 °C.
With `Cc1cccc2c(-c3c(F)ccc4nn(C)cc34)nn(-c3ccc(N4CC[C@@H](CC(=O)O)C4)nc3)c12` [Example 24, 2-[(3S)-1-(5-{5″-fluoro-2″,7-dimethyl-1H,2″H-[3,4″-biindazol]-1-yl}pyridin-2-yl)pyrrolidin-3-yl]acetic acid], the concentration giving a half-maximal response (EC50) on STING came out at 270 nM. The “Delta TM” value with dog STING (dSTING) stood at 35.5 °C.
Compound `Cc1cccc2c(-c3c(F)cc(F)c4nn(C)cc34)nn(-c3ccc(N4CC[C@H](CC(=O)O)C4)nc3)c12` [Example 46, 2-[(3R)-1-(5-{5″,7″-difluoro-2″,7-dimethyl-1H,2″H-[3,4″-biindazol]-1-yl}pyridin-2-yl)pyrrolidin-3-yl]acetic acid] registered a concentration for a half-maximal effect (EC50) on STING of 261 nM. Moreover, the “Delta TM” value in the test with dog STING (dSTING) was found to be 35.3 °C.
